Assay results published in patent US20100254940A1, “Compositions and Methods for Regulating an Immune Response in a Subject” (INNATE PHARMA, S.A., priority 2002, published 2010).

Test: Two-phase repeated dose toxicity study in cynomolgus monkeys, i.v. BrHPP
Assay type: in vivo
Protocol: The objective of the first phase of this non GLP study was to determine BrHPP Maximum Tolerated Dose (MTD) in a group of two cynomolgus monkeys (one male, one female) by escalating doses. The second objective of this study was to characterize the toxicity of daily i.v. administration of Phosphostim for two weeks in two cynomolgus monkeys (one male, one female) at the MTD determined during the first phase of the study. The animals were treated at increasing dose-levels every 3 or 4 days (phase 1) and then at the estimated Maximum Tolerated Dose (MTD) daily for 2 weeks (phase 2).
A total of four cynomolgus monkeys (two males and two females) were divided into 2 groups and treated with BrHPP, by intravenous administration over a 1-hour infusion period as follows:
Group 1 (one male and one female) were administered BrHPP and/or Phosphostim (BrHPP, 200 mg) i.v. at increasing dose-levels (160, 400, 600, 900 and 1200 mg/kg) every 3 or 4 days. Anionic form BrHPP equilvalent to these doses are respectively: 96, 240, 360, 540 and 720 mg/kg. BrHPP was given as a solution after reconstitution in water for injection finally diluted in Ringer lactate under a dose volume of 4, 10 or 15 mL/kg.
Group 2 (one male and one female) were administered BrHPP i.v. daily at 900 mg/kg/day (540 mg/kg/day in anionic form BrHPP equivalent) for 2 weeks.
The animals were checked daily for mortality and clinical signs. Body weight was recorded pre-study and on the day of each administration in phase 1 or twice weekly throughout phase 2, and including on the day of necropsy for phase 2. Food consumption was estimated daily, starting at least 7 days pre-phase. Hematological, blood biochemical and/or peripheral blood lymphocyte subset analysis investigations were performed pre-study, on the day of each administration in phase 1, on day 7 in phase 2 and at the end of both phases. Electrocardiographic and blood pressure recordings were performed pre-study, on the day of each administration in phase 1 and on day 1 and at the end of treatment in phase 2. Blood, for determination of plasma levels of the test item, was sampled on days 1 and 14 in phase 2. On completion of each phase, animals were submitted to a complete macroscopic post-mortem examination and specified tissues preserved. In phase 2, selected body organs were weighed and microscopic examination of selected tissues was performed for all animals.

## 3-(bromomethyl)-3-butanol-1-yl-diphosphate [BrHPP]
Phase 1 or Phase 2
  macroscopic post-mortem examination: No relevant findings
Phase 2, 900 mg/kg/day 2 weeks
  lymphocyte count: increased lymphocyte count was noted in both animals
Both treatment phases
  clinical signs: no relevant clinical signs were noted
Either phase
  blood pressure: did not affect blood pressure
  body weight evolution: had no effect on the body weight evolution
  food consumption: unaffected
Phase 1, 160-1200 mg/kg
  hematological or blood chemistry changes: No treatment related hematological or blood chemistry changes
Phase 1: 160-1200 mg/kg every 3 or 4 days, phase 2: 900 mg/kg/day 2 weeks
  mortality: No unscheduled death occurred
Phase 2, female
  absolute thymus weight: slightly lower absolute thymus weight
  microscopic findings, female: Lymphoid depletion was seen in the thymus and mesenteric lymph node
Phase 2, male
  microscopic findings, male: increase of follicular germinal center in the mesenteric lymph node
